Patent publication US20250345446A1 (Draupnir Bio ApS, priority 2022, published 2025)
Read-outs that look alike come from different tables or passages of the source. Residues, ends and D or L forms follow the SMILES beside them. *: point of attachment. Biotin = O=C1N[C@H]2[C@H](CS[C@H]2CCCCC(=O)*)N1

What was measured:
HEK293/sortilin cells [1] = experiment: Lysosomal sorting and degradation of NA650 (microscopy, blotted lysates, leupeptin); assay type: cell-based; settings: NA650 100 nM
Method: Cellular uptake of target NA650 was analyzed with fluorescence microscopy. For this assay, coverslips in 4 well plates were coated with poly-L lysine prior to seeding of HEK293/sortilin cells (25K cells/coverslip) in culture media (as described in Example 3)) and incubated overnight in cell incubator (37° C., humidified, 5% CO2). The culture media was replaced with assay media (as described in Example 3) containing NA650 (Invitrogen) (500 nM) (Thermo Fischer), a compound according to SEQ ID NO.: 147 (2 μM) and AF38469 (100 μM, MedChemExpress). The cells were incubated in a cell incubator for 4 hours before washing in dPBS (Bionordika) followed by fixation with dPBS+4% PFA (Sigma Aldrich) for 15 minutes. […] The fluorescent signal was analyzed using a laser scanning confocal microscope (LSM-800). […]
Culture medium was replaced with assay medium (DMEM (Lonza), 10% fetal bovine serum (Sigma Aldrich), 1% penicillin-streptomycin (Sigma Aldrich), 1% GlutaMAX (Gibco)) with or without NA650 (Invitrogen) (100 nM) (Thermo Fischer), peptidic bifunctional compound (300 nM) and leupeptin (80 μM) (Sigma Aldrich). […] Proteins were blotted onto a nitrocellulose membrane (Thermo Fisher), and the DyLight650 signal was detected using an iBright 1500 (Thermo Fisher). […]

[2] = biological target: T1, soluble ectodomain of sortilin-6his (Homo sapiens, UniProt Q99523, V650M); experiment: MST binding to soluble ectodomain of sortilin-6his
T1 construct: the soluble ectodomain of sortilin-6his is measured by microscale thermophoresis (MST)
T1 sequence (Q99523 with tags, fused parts or gaps V650M): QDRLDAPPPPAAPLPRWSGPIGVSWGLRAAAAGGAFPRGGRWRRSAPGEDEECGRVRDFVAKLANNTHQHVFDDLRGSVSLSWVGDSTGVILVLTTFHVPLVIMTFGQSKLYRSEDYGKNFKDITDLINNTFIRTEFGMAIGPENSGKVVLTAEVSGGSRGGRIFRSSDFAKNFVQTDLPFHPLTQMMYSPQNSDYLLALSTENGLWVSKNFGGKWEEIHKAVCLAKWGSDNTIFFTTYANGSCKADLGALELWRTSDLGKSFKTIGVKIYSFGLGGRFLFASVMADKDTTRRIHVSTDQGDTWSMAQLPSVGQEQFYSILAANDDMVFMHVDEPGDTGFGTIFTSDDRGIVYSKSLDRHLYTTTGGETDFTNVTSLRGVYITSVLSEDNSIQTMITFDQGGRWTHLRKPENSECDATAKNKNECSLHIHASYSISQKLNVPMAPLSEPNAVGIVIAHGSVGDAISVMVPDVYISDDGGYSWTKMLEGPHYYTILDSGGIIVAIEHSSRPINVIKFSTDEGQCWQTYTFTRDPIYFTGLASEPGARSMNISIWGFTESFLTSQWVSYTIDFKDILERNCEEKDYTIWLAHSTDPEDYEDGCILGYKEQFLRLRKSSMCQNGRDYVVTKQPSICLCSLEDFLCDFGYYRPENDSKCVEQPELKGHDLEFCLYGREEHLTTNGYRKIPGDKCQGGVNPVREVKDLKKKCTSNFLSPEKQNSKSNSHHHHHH

[3] = tested on: HEK293 cells expressing full length sortilin receptor; experiment: Cellular uptake of AlexaFluor488-anti-DNP antibody; assay type: cell-based; settings: Table 7; AlexaFluor488-anti-DNP antibody (100 nM), 3 h, DNP warhead compounds
Description: In this example, the small molecule degraders consist of a sortilin binder linked to warhead DNP to target anti-DNP antibodies (BF001 to BF016)
Cellular uptake of AlexaFluor488-anti-DNP antibody (Thermo Fisher) was investigated in HEK293 cells expressing full length sortilin receptor in a methodology analogous to example 3.

[4] = tested on: untransfected HEK239 cells; experiment: Cellular uptake of target in untransfected HEK293 cells (Example 22); assay type: cell-based; settings: HEK293 cells without sortilin, 3 h, 2 nM to 2 μM, corresponding targets
Description: Cellular uptake of target was investigated in untransfected HEK239 cells and HEK293 cells expressing sortilin receptor in a methodology analogous to example 3.

HEK293/sortilin cells [5] = experiment: Remaining TNFalpha in conditioned media (ELISA); assay type: cell-based; settings: after 72 h, 20 nM TNFalpha; added TNFalpha (100%) subtracted remaining TNFalpha (%)
Method: In different experiments, HEK293/sortilin cells were incubated with compound gradient series and 20 nM TNFalpha for up to 72 h. Following incubation, remaining TNFalpha in conditioned media was evaluated using human TNF-alpha Quantikine ELISA Kit (R&D systems, DTA00D).

[6] = tested on: HEK293 cells expressing full length sortilin receptor; experiment: Cellular uptake of NA650 in HEK293/sortilin cells; assay type: cell-based; settings: 3 h incubation, 9.8 nM to 10 μM, NA650 100 nM
How it was run: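 HEK293 cells stably expressing full-length sortilin, seeded overnight, were exposed for 3 h at 37° C. in DMEM/10% FBS to NA650 (100 nM) with peptidic bifunctional compounds (9.8 nM to 10 μM). After dPBS washes, cell-associated DyLight650 fluorescence was read on a plate reader.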

HEK293/sortilin cells [7] = experiment: Depletion of NA650 from cell culture supernatant; assay type: cell-based; settings: for reduction in NA650 signal in cell culture supernatant: single addition, NA650 100 nM
Method: HEK293/sortilin cells were cultured in culture media containing DMEM (Lonza) further supplemented with 10% fetal bovine serum (Sigma), 1% GlutaMax Supplement (Gibco), penicillin-streptomycin (Thermo Fischer) and selection antibiotics 100 μg/mL Zeocin (Invitrogen). 35k cells/well were seeded in poly-L-lysine coated 96-well plates (Perkin Elmer) and allowed to incubate for 16-24 h in cell incubator (37° C., humidified, 5% CO2). Culture media were discarded, and the cells were washed with assay medium containing FluoroBright DMEM (Gibco) supplemented with 10% fetal bovine serum (Sigma) and 1% GlutaMax Supplement (Gibco). The media were discarded and replaced with assay media or assay medium containing 100 nM NA650 (Invitrogen). For wells evaluating the bifunctional compounds, the assay medium also contained concentrations ranging from 20 nM to 5 μM. After an incubation period of up to 72 h in the cell incubator the media were harvested and the presence of NA650 were evaluated by fluorescence intensity (FI) measurements of DyLight650 using a fluorescence plate reader (BMG Labtech Clariostar).
HEK293/sortilin cells (35k cells/96-well) were seeded in culture media (as described in Example 3) and incubated for 24 h in cell incubator. Culture media were discarded, and the cells were washed with assay medium containing FluoroBright DMEM (Gibco) and supplements as described in Example 3, before incubation in assay medium containing 100 nM NA650 and small molecule bifunctional compounds (20 nM to 5 μM). After an incubation period of up to 72 h, the media were harvested and the presence of NA650 were evaluated by FI measurements of DyLight650 using a fluorescence plate reader (BMG Labtech Clariostar).

[8] = biological target: streptavidin, bifunctional compound and sortilin-6his (UniProt P22629+Q99523, V650M); experiment: TR-FRET ternary complex formation streptavidin / bifunctional peptide / sortilin-6his; settings: Table 2; […] incubation, HTRF ratio 665/620 nm
Method: In these experiments, the compounds of interest were titrated over 24-point in a 384-well TTP LVDS plate (SPT Labtech) to a final buffer composition of 50 mM Bis-Tris Propane pH 8, 50 mM NaCl, 0.05% Tween20, with or without 10% DMSO using a Mosquito LV pipetting robot (SPT Labtech).
The reaction was allowed to incubate for 2.5 hours at room temperature, at which point the HTRF signal ratio at 665/620 nm was determined using a plate reader (ClarioStar, BMG Labtech). All reactions were run in triplicates and data was represented as HTRF ratio as a function of bifunctional compound concentration.

[9] = biological target: Sortilin-6His (Homo sapiens (Human)) (UniProt Q99523); experiment: MST on labelled sortilin-6his ectodomain; KD score: +++ <25 nM, ++ 25-250 nM, + 250-2500 nM, 0 >2500 nM
Sequence of Sortilin-6His (Homo sapiens (Human)) (Q99523 78-755 V650M limits assumed): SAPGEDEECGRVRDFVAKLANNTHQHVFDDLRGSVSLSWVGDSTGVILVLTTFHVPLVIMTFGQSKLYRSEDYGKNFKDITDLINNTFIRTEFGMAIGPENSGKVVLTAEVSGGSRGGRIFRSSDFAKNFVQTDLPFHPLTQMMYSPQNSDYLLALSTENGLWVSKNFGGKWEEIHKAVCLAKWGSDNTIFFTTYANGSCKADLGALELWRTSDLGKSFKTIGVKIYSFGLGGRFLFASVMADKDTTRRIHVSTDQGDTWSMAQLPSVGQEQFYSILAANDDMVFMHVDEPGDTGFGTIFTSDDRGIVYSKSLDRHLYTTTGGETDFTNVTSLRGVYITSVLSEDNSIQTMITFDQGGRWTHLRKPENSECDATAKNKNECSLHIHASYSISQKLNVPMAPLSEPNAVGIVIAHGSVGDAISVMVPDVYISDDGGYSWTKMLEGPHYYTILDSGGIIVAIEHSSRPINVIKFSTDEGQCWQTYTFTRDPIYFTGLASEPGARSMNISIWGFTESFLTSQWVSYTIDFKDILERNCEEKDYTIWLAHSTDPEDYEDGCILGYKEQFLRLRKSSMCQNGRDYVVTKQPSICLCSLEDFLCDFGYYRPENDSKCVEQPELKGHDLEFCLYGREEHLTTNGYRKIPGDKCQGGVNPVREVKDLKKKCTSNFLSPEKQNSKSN

Sortilin-6His [10] = biological target: T2, Sortilin-6His (Homo sapiens (Human), UniProt Q99523 78-755); experiment: MST, fluorescent sortilin-6his (100 nM), peptide titrated
T2 construct: In MST it was labelled non-covalently with RED-tris-NTA; also called soluble ectodomain of sortilin-6his; fluorescent sortilin-6his
T2 sequence (Q99523 78-755 V650M limits assumed): as above

Sortilin-6His [11] = biological target: T2, Sortilin-6His; experiment: MST on labelled sortilin-6his ectodomain; KD score: ++ <100 nM, + 100-2000 nM
Sortilin-6His [12] = biological target: T2, Sortilin-6His; experiment: TR-FRET (HTRF) ternary complex streptavidin-d2 / biotin-peptide / sortilin-6His; AUC score: + <5000, ++ >5000
Sortilin-6His [13] = biological target: T2, Sortilin-6His; experiment: MST on labelled sortilin-6his ectodomain

CC(C)(C)CCC(NC(=O)c1ccc(Oc2cccc(OCCOCCOCCOCCOCCOCCNC(=O)CCCC[C@@H]3SC[C@@H]4NC(=O)N[C@@H]43)c2)nc1)C(=O)O (stereo partly shown) [B025]
NA650 band in lysate (HEK293/sortilin cells [1]; 24 h incubation, compound 300 nM): visible in cells incubated with B025 alone

CC(C)(C)CC[C@H](NC(=O)c1ccc(Oc2cccc3c(C(=O)NCCCNC(=O)CCOCCOCCOCCNc4ccc([N+](=O)[O-])cc4[N+](=O)[O-])cccc23)nc1)C(=O)O [BF005, (2S)-2-[[6-[5-[3-[3-[2-[2-[2-(2,4-dinitroanilino)ethoxy]ethoxy]ethoxy]propanoylamino]propylcarbamoyl]-1-naphthyl]oxy]pyridine-3-carbonyllamino]-5,5-dimethyl-hexanoic acid]
Kd [2]: 1 to 10 nM
AUC score, target internalization [3]: ++ (AUC > 10.000)
cell associated FI response to increasing degrader concentration [4]: No response

C[C@@H]1CN(c2ncc(-c3ccc4c(n3)N(Cc3cccnc3C#N)C(C)(C)C4=O)cn2)CCN1C(=O)CNC(=O)CCCCCCCCCNC(=O)c1cccc(Oc2ccc(C(=O)N[C@@H](CCC(C)(C)C)C(=O)O)cn2)c1 [BF043, (2S)-2-[[6-[3-[[10-[[2-[(2R)-4-[5-[1-[(2-cyano-3-pyridyl)methyl]-2,2-dimethyl-3-oxo-pyrrolo[2,3-b]pyridin-6-yl]pyrimidin-2-yl]-2-methyl-piperazin-1-yl]-2-oxo-ethyl]amino]-10-oxo-decyl]carbamoyl]phenoxy]pyridine-3-carbonyl]amino]-5,5-dimethyl-hexanoic acid]
Kd ([2]; Table 4, small molecule bifunctional compounds, MST, read-out: KD score, binding to sortilin (Kd)): < 1 nM
Maximum clearance rates of TNFalpha from conditioned media (HEK293/sortilin cells [5]): 63.3%

CC(C)C[C@H](NC(=O)[C@H](CC(C)C)NC(=O)[C@H](CCC(N)=O)NC(=O)[C@H](CCCNC(=N)N)NC(=O)CNC(=O)CNC(=O)[C@H](CO)NC(=O)CNC(=O)CNC(=O)CNC(=O)CNC(=O)[C@H](CO)NC(=O)CNC(=O)CNC(=O)CNC(=O)CNC(=O)[C@H](CO)NC(=O)CNC(=O)CNC(=O)CCCC[C@@H]1SC[C@@H]2NC(=O)N[C@@H]21)C(=O)O [SEQ ID NO.: 147] (Biotin-GGSGGGGSGGGGSGGRQLL-OH)
Kd ([2]; Table 1, biotin-linker-peptide bifunctional compounds, MST, read-out: KD score, binding to sortilin (Kd)): 100 to 2000 nM
cell associated FI signal, response to concentration series (in words) [6]: bell-shaped response
subcellular localization of internalized NA650 (fluorescence microscopy) (HEK293/sortilin cells [1]; 2 h incubation, bifunctional molecule 300 nM, anti-LAMP1 staining): co-localizes with lysosomal marker
reduction in NA650 signal in cell culture supernatant (HEK293/sortilin cells [7]; after 24 h): 16%
reduction in NA650 signal in cell culture supernatant (HEK293/sortilin cells [7]; after 48 h): 46%
reduction in NA650 signal in cell culture supernatant (HEK293/sortilin cells [7]; after 72 h): 61%
degrader concentration of highest uptake of target (HEK293/sortilin cells [7]; all timepoints (24, 48, 72 h)): 312 nM
AUC score, TR-FRET measurements of ternary complex formation [8]: ++ (AUC > 5000)

H-LQLL-OH (as printed in Table 3 for SEQ ID NO.: 30) (peptide)
KD [9]: 25 to 250 nM

B1: Biotin-GGSGGGGSGGGGSGGRQLL-OH (peptide)
peptide: Biotin-GGSGGGGSGGGGSGGRQLL-OH
SMILES: CC(C)C[C@H](NC(=O)[C@H](CC(C)C)NC(=O)[C@H](CCC(N)=O)NC(=O)[C@H](CCCNC(=N)N)NC(=O)CNC(=O)CNC(=O)[C@H](CO)NC(=O)CNC(=O)CNC(=O)CNC(=O)CNC(=O)[C@H](CO)NC(=O)CNC(=O)CNC(=O)CNC(=O)CNC(=O)[C@H](CO)NC(=O)CNC(=O)CNC(=O)CCCC[C@@H]1SC[C@@H]2NC(=O)N[C@@H]21)C(=O)O
notes: also called degrader
Kd (Sortilin-6His [10]): 703 nM
KD (Sortilin-6His [11]): 100 to 2000 nM
AUC of TR-FRET (HTRF ratio vs compound concentration) for ternary complex formation (Sortilin-6His [12]): > 5000 auc

B2: Biotin-GGSGGGGSGGGGSGG-OH (peptide)
peptide: Biotin-GGSGGGGSGGGGSGG-OH
SMILES: O=C(O)CNC(=O)CNC(=O)[C@H](CO)NC(=O)CNC(=O)CNC(=O)CNC(=O)CNC(=O)[C@H](CO)NC(=O)CNC(=O)CNC(=O)CNC(=O)CNC(=O)[C@H](CO)NC(=O)CNC(=O)CNC(=O)CCCC[C@@H]1SC[C@@H]2NC(=O)N[C@@H]21
binding result (Sortilin-6His [13]): no binding
